The nature of series [1]: Antiinflammatory activity in mouse BV2 cells assessed as inhibition of LPS-stimulated nitric oxide production after 24 hrs by Griess assay. The following applies: BV-2, 24 h. It counts as functional, cell-based.
The nature of series [2]: Cytotoxicity against mouse BV2 cells assessed as effect on cell viability after 24 hrs by MTT assay. It counts as cell-based. Particulars: bv-2, 24 h.
A short description of series [3]: Cytotoxicity against mouse BV2 cells assessed as cell viability at 40 uM after 24 hrs by MTT assay relative to control. It counts as cell-based, BV-2. Particulars: read-out: Activity.
The nature of series [4]: Antiinflammatory activity in mouse BV2 cells assessed as inhibition of LPS-stimulated nitric oxide production at 40 uM after 24 hrs by Griess assay relative to control. It counts as functional. The following applies: BV-2, 24 h.

Each structure is given as a SMILES string.

`COc1cc(C)c(Cc2ccc3[nH]c4ccccc4c3c2)c2c1[nH]c1ccccc12`: in series [1], the IC50 was found to be 26.7 µM. For the same compound, the Activity result in series [2] was “Non-toxic”.
The corresponding values for `COc1cc(Cc2c(C)cc(OC)c3[nH]c4ccccc4c23)cc2c1[nH]c1ccccc12` are 18.6 µM and “Non-toxic”.
In the case of `COc1ccc2c([nH]c3c(-c4c(O)c(C)cc5c4[nH]c4c(C=O)c(OC)ccc45)c(O)c(C)cc32)c1C=O`, the viability at 24 h, 40 µM in series [3] is under 80%.
For the compound `COc1cc(Cc2c(C)cc3c([nH]c4ccccc43)c2OC)cc2c1[nH]c1ccccc12`, the IC50 in series [1] came to 11.4 µM. Also, the Activity result in series [2] is listed as “Non-toxic”.
On to `COn1c2ccccc2c2cc(COCc3ccc4c(c3)c3ccccc3n4Cc3ccc4c(c3)c3ccccc3n4OC)ccc21`, for which the Activity entry in series [2] is given as “Non-toxic”. The inhibition at 40 µM in series [4] is under 20%.
As to `O=c1c(O)c(-c2ccc(O)c(O)c2)oc2cc(O)cc(O)c12` [QUERCETIN], the IC50 in series [1] is 17.4 µM.
As for `COc1c(O)c(C)cc2c3ccccc3n(Cc3ccc4[nH]c5ccccc5c4c3)c12`, in series [3], the viability at 24 h, 40 µM is under 80%.
With `COc1cc(Cn2c3ccccc3c3cc(C=O)cc(OC)c32)cc2c1[nH]c1ccccc12`, the IC50 in series [1] came out at 38.5 µM. The Activity entry in series [2] is given as “Non-toxic”.
Regarding `COc1cc(Cn2c3ccccc3c3cc(C)c(O)cc32)cc2c1[nH]c1ccccc12`, the viability at 24 h, 40 µM in series [3] was under 80%.
In the case of `COc1cc(Cn2c3ccccc3c3cc(CO)cc(OC)c32)cc2c1[nH]c1ccccc12`, the IC50 in series [1] was 19.3 µM. Besides, the Activity entry in series [2] is listed as “Non-toxic”.
The corresponding values for `COn1c2ccccc2c2cc(COCc3ccc4[nH]c5ccccc5c4c3)ccc21` are 21.9 µM and “Non-toxic”.
Regarding `COc1cc(Cn2c3ccccc3c3cc(C)c(O)c(OC)c32)cc2c1[nH]c1ccccc12`, the viability at 24 h, 40 µM in series [3] is under 80%.
Take `COn1c2ccccc2c2cc(COCc3ccc4c(c3)c3cc(Cc5ccc6c(c5)c5ccccc5n6OC)ccc3n4OC)ccc21`: in series [1], the IC50 worked out at 27.2 µM. Besides, the Activity entry in series [2] is “Non-toxic”.
As for `COc1cc(Cc2ccc3[nH]c4c(OC)c(O)c(C)cc4c3c2)cc2c1[nH]c1ccccc12`, the viability at 24 h, 40 µM in series [3] is under 80%.
As to `COc1cc(Cn2c3ccccc3c3cc(C=O)ccc32)cc2c1[nH]c1ccccc12`, the IC50 in series [1] is 17.9 µM. Moreover, the Activity entry in series [2] is on record as “Non-toxic”.
For `COn1c2ccccc2c2cc(COCc3ccc4c(c3)c3ccccc3n4OC)ccc21` the same measures were 11.2 µM and “Non-toxic”.
Consider `COc1cc(Cc2c(O)c(C)cc3c2[nH]c2ccccc23)cc2c1[nH]c1ccccc12`, for which the viability at 24 h, 40 µM in series [3] was under 80%.
For `COc1ccc2c([nH]c3c(-c4c(O)c(C)cc5c4[nH]c4ccccc45)c(O)c(C)cc32)c1C=O`, the viability at 24 h, 40 µM in series [3] was under 80%.

Source of the values: ChEMBL document CHEMBL3632482, “Nitrogen Oxide Inhibitory Trimeric and Dimeric Carbazole Alkaloids from Murraya tetramera” (J Nat Prod, 2015).
